Assay results reported in US8946438B2, “Benzamides, production thereof, and use thereof as medicaments” (Boehringer Ingelheim International GmbH, priority 2008, dated 2015).

Molecular target: p38 MAP-kinase (Homo sapiens, UniProt Q16539)
Assay: Enzymatic assay: inhibition of p38 MAP-kinase (phosphorylation of GST-tagged ATF2, chemoluminescence bead readout)
Format: biochemical
Settings: inhibitor 1 μM; activated p38 MAP-kinase 1 nM; 4 h preincubation; ATP 100 μM; ATF2 10 nM; read-out: % inhibitory effect at 1 μM
In short: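 Activated human p38 MAP-kinase (1 nM) preincubated 4 h at ambient temperature with compound at 1 μM in HEPES pH 7, MgCl2, DTT, Tween20. Then reacted 1 h with GST-ATF2 (10 nM) and ATP (100 μM). Phospho-ATF2 read by bead chemoluminescence at 520-620 nm, given as % inhibition at 1 μM versus kinase-free background.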

p38 MAP-kinase, sequence (Q16539 whole entry): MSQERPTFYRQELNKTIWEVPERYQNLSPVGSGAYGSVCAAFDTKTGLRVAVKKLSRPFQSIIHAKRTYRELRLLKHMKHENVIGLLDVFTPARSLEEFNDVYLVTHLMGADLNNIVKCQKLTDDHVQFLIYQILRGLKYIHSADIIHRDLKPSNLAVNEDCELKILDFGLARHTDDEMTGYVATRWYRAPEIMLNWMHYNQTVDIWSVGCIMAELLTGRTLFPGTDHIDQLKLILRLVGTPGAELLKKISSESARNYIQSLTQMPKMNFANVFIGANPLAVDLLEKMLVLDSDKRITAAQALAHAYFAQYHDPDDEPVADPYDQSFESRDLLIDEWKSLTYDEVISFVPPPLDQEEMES

| SMILES | inhibition at 1 µM |
| --- | --- |
| COc1c(NC(=O)c2ccc(Cl)c(Oc3ccnc(CN4CCN(C)CC4)c3)c2)cc(C(C)(C)C)cc1NS(C)(=O)=O [12(4), N-(5-tert-butyl-3-methanesulphonylamino-2-methoxy-phenyl)-4-chloro-3-[2-(4-methyl-piperazin-1-ylmethyl)-pyridin-4-yloxy]-benzamide] | 99.3% |
| COc1c(NC(=O)c2ccc(C)c(Oc3ccnc(N(C)C4CCN(C)C4)n3)c2)cc(C(C)(C)C)cc1NS(C)(=O)=O (centres unmarked) [4(19), N-(5-tert-butyl-3-methanesulphonylamino-2-methoxy-phenyl)-4-methyl-3-{2-[methyl-(1-methyl-pyrrolidin-3-yl)-amino]-pyrimidin-4-yloxy}-benzamide] | 98.6% |
| COc1c(NC(=O)c2ccc(Cl)c(Oc3cc(CN4CCCN(C)CC4)ncn3)c2)cc(C(C)(C)C)cc1NS(C)(=O)=O [8(38), N-(5-tert-butyl-3-methanesulphonylamino-2-methoxy-phenyl)-4-chloro-3-[6-(4-methyl-[1,4]diazepan-1-ylmethyl)-pyrimidin-4-yloxy]-benzamide] | 98.8% |
| COc1c(NC(=O)c2ccc(C)c(Oc3ccnc(CC4CCCNCC4)n3)c2)cc(C(C)(C)C)cc1NS(C)(=O)=O (centres unmarked) [5(53), 3-(2-azepan-4-ylmethyl-pyrimidin-4-yloxy)-N-(5-tert-butyl-3-methanesulphonylamino-2-methoxy-phenyl)-4-methyl-benzamide] | 97% |
| COc1c(NC(=O)c2ccc(C)c(Oc3cc(N4CC[C@H](N(C)C)C4)ncn3)c2)cc(C(C)(C)C)cc1NS(C)(=O)=O [4(13), N-(5-tert-butyl-3-methanesulphonylamino-2-methoxy-phenyl)-3-[6-((S)-3-dimethylamino-pyrrolidin-1-yl)-pyrimidin-4-yloxy]-4-methyl-benzamide] | 96.3% |
| COc1c(NC(=O)c2ccc(C)c(Oc3ccnc(CNC4CCN(C)C4)n3)c2)cc(C(C)(C)C)cc1NS(C)(=O)=O (centres unmarked) [8(23), N-(5-tert-butyl-3-methanesulphonylamino-2-methoxy-phenyl)-4-methyl-3-{2-[(1-methyl-pyrrolidin-3-ylamino)-methyl]-pyrimidin-4-yloxy}-benzamide] | 97.8% |
| COc1c(NC(=O)c2ccc(C)c(Oc3cc(N(C)C4CCN(C)CC4)ncn3)c2)cc(C(C)(C)C)cc1NS(C)(=O)=O [4(17), N-(5-tert-butyl-3-methanesulphonylamino-2-methoxy-phenyl)-4-methyl-3-{6-[methyl-(1-methyl-piperidin-4-yl)-amino]-pyrimidin-4-yloxy}-benzamide] | 98.7% |
| COc1c(NC(=O)c2ccc(C)c(Oc3ccnc(N(C)C4CCN(C)CC4)n3)c2)cc(C(C)(C)C)cc1NS(C)(=O)=O [4(16), N-(5-tert-butyl-3-methanesulphonylamino-2-methoxy-phenyl)-4-methyl-3-{2-[methyl-(1-methyl-piperidin-4-yl)-amino]-pyrimidin-4-yloxy}-benzamide] | 99.4% |
| COc1c(NC(=O)c2ccc(C)c(Oc3cc(CC4CCCNCC4)ncn3)c2)cc(C(C)(C)C)cc1NS(C)(=O)=O (centres unmarked) [5(54), 3-(6-azepan-4-ylmethyl-pyrimidin-4-yloxy)-N-(5-tert-butyl-3-methanesulphonylamino-2-methoxy-phenyl)-4-methyl-benzamide] | 99.7% |
| COc1c(NC(=O)c2cc(C)cc(Oc3ccnc(C(=O)N4CCNCC4)n3)c2)cc(C(C)(C)C)cc1NS(C)(=O)=O [5(21), N-(5-tert-butyl-3-methanesulphonylamino-2-methoxy-phenyl)-3-methyl-5-[2-(piperazine-1-carbonyl)-pyrimidin-4-yloxy]-benzamide x trifluoroacetic acid] | 88.9% |
| COc1c(NC(=O)c2ccc(C)c(Oc3ccnc(CC4CCN(C)CC4)c3)c2)cc(C(C)(C)C)cc1NS(C)(=O)=O [9(2), N-(5-tert-butyl-3-methanesulphonylamino-2-methoxy-phenyl)-4-methyl-3-[2-(1-methyl-piperidin-4-ylmethyl)-pyridin-4-yloxy]-benzamide] | 98.5% |
| COc1c(NC(=O)c2cc(F)c(C)c(Oc3ccnc(CN4CCN(C)CC4)n3)c2)cc(C(C)(C)C)cc1NS(C)(=O)=O [7(3), N-(5-tert-butyl-3-methanesulphonylamino-2-methoxy-phenyl)-3-fluoro-4-methyl-5-[2-(4-methyl-piperazin-1-ylmethyl)-pyrimidin-4-yloxy]-benzamide] | 98.8% |
| COc1c(NC(=O)c2ccc(C)c(Oc3ccnc(NC4CCN(C)CC4)n3)c2)cc(C(C)(C)C)cc1NS(C)(=O)=O [4(9), N-(5-tert-butyl-3-methanesulphonylamino-2-methoxy-phenyl)-4-methyl-3-[2-(1-methyl-piperidin-4-ylamino)-pyrimidin-4-yloxy]-benzamide] | 98.6% |
| COc1c(NC(=O)c2ccc(C)c(Oc3ccnc(N[C@H]4CC[C@H](N(C)C)CC4)n3)c2)cc(C(C)(C)C)cc1NS(C)(=O)=O [4(18), N-(5-tert-butyl-3-methanesulphonylamino-2-methoxy-phenyl)-3-[2-(trans-4-dimethylamino-cyclohexylamino)-pyrimidin-4-yloxy]-4-methyl-benzamide] | 99% |
| CNc1cc(Oc2cc(C(=O)Nc3cc(C(C)(C)C)cc(NS(C)(=O)=O)c3OC)ccc2C)ncn1 [3(1), N-(5-tert-butyl-3-methanesulphonylamino-2-methoxy-phenyl)-4-methyl-3-(6-methylamino-pyrimidin-4-yloxy)-benzamide] | 97% |
| COc1c(NC(=O)c2ccc(C)c(Oc3ccnc(CN4CCN(C)CC4)n3)c2)cc(C(C)(C)C)cc1NS(C)(=O)=O [8(6), N-(5-tert-butyl-3-methanesulphonylamino-2-methoxy-phenyl)-4-methyl-3-[2-(4-methyl-piperazin-1-ylmethyl)-pyrimidin-4-yloxy]-benzamide] | 98.7% |
| COc1c(NC(=O)c2ccc(C)c(Oc3cc(CN4CCOCC4)ncn3)c2)cc(C(C)(C)C)cc1NS(C)(=O)=O [Example 8, N-(5-tert-butyl-3-methanesulphonylamino-2-methoxy-phenyl)-4-methyl-3-(6-morpholin-4-ylmethyl-pyrimidin-4-yloxy)-benzamide] | 95% |
| COc1c(NC(=O)c2ccc(Cl)c(Oc3cc(NC4CCN(C)CC4)ncn3)c2)cc(C(C)(C)C)cc1NS(C)(=O)=O [4(14), N-(5-tert-butyl-3-methanesulphonylamino-2-methoxy-phenyl)-4-chloro-3-[6-(1-methyl-piperidin-4-ylamino)-pyrimidin-4-yloxy]-benzamide] | 99.4% |
| COc1c(NC(=O)c2ccc(C(F)(F)F)c(Oc3ccnc(N4CCNCC4)n3)c2)cc(C(C)(C)C)cc1NS(C)(=O)=O [5(4), N-(5-tert-butyl-3-methanesulphonylamino-2-methoxy-phenyl)-3-(2-piperazin-1-yl-pyrimidin-4-yloxy)-4-trifluoromethyl-benzamide x trifluoroacetic acid] | 45.3% |
| COc1c(NC(=O)c2ccc(Cl)c(Oc3ccnc(CN4CCCN(C)CC4)c3)c2)cc(C(C)(C)C)cc1NS(C)(=O)=O [8(39), N-(5-tert-butyl-3-methanesulphonylamino-2-methoxy-phenyl)-4-chloro-3-[2-(4-methyl-[1,4]diazepan-1-ylmethyl)-pyridin-4-yloxy]-benzamide] | 98.9% |
